Source: patent US20070197586A1, “8-Hydroxy-5-[(-Hydroxy-2-[[ (1R)-2-(4-Methoxyphenyl)-1-Methylethyl] Amino][Ethyl]-2(1H)-Quinolinone Monohydrochloride In Crystalline Form And The Process For Its Preparation” (Chiesi Farmaceutici S.p.A., priority 2004, published 2007)

Test: Crystalline degree by in-house DSC method (heat of fusion vs 100% crystalline reference standard)
Format: physicochemical
Details: samples as such and after grinding or micronization; DSC scan rate 130° C./min; maintained after grinding and micronization
Description: The crystalline degree of the compound has been determined according to a differential scanning calorimetry (DSC) method developed in-house based on the measurement of the heat of fusion.
Said method uses a scan rate of 130° C./min to evaluate the percentage of crystalline compound in a sample by determining the ratio between the ΔH (heat of fusion) of the sample with respect to the ΔH of a 100% crystalline reference standard, determined in the same range of temperature and in the same experimental conditions. The 100% crystalline reference standard was prepared by suspending the compound in ethanol, then filtering to eliminate the residual amorphous compound dissolved in ethanol, and drying.
The method was applied to samples of the compound of the Example as such, and after grinding or micronization.

## COc1ccc(C[C@@H](C)NC[C@H](O)c2ccc(O)c3[nH]c(=O)ccc23)cc1.Cl [compound of the Example, 8-hydroxy-5-[(1R)-1-hydroxy-2-[[(1R)-2-(4-methoxyphenyl)-1-methylethyl]amino]ethyl]-2(1H)-quinolinone monohydrochloride]
  cristallinity degree: higher than 90%
